In the experiment the test system is L1210 leukemia ip in BDF1 mice, survival T/C. Put plainly: NCI In Vivo Anticancer Drug Screen. Data for tumor model L1210 Leukemia (intraperitoneal) in B6D2F1 (BDF1) mice. The conditions noted are these: endpoint: mean survival time, higher = longer survival. The method in brief:
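Read-out is survival time, reported as the treated-group measurement over the vehicle-control measurement.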

Where [1] appears, read: dose: 100.0 mg/kg/injection, schedule: Q04DX003 (ip), vehicle: saline with Tween-80.
[2] abbreviates: dose: 100.0 mg/kg/injection, schedule: Q01DX009 (ip), vehicle: saline with Tween-80.
The mark [3] stands for this setting: dose: 100.0 mg/kg/injection, schedule: Q01DX001 (ip), vehicle: saline with Tween-80.
The mark [4] stands for this setting: dose: 200.0 mg/kg/injection, schedule: Q01DX001 (ip), vehicle: saline with Tween-80.

“And” between values parts separate entries of the source, which are not always exact repeats. Identical values can stand only once. Toxic doses and inconclusive results are not listed.

On to `CCCCCCCSc1ccc(C(=O)O)cc1`, for which the T/C (dose: 37.5 mg/kg/injection, schedule: Q01DX009 (ip), vehicle: saline) is 91 % of control; the T/C (dose: 75.0 mg/kg/injection, schedule: Q01DX001 (ip), vehicle: acetone) is 102 % of control; the T/C (dose: 75.0 mg/kg/injection, schedule: Q01DX009 (ip), vehicle: saline) is 97 % of control; the T/C (dose: 75.0 mg/kg/injection, schedule: Q04DX003 (ip), vehicle: acetone) was 102 % of control; the T/C (dose: 150.0 mg/kg/injection, schedule: Q01DX001 (ip), vehicle: acetone) is 95 % of control; the T/C (dose: 150.0 mg/kg/injection, schedule: Q01DX009 (ip), vehicle: saline) was 90 % of control. Also, the T/C is, setting by setting: (dose: 150.0 mg/kg/injection, schedule: Q04DX003 (ip), vehicle: acetone) 102 % of control; (dose: 300.0 mg/kg/injection, schedule: Q01DX001 (ip), vehicle: acetone) 98 % of control; (dose: 300.0 mg/kg/injection, schedule: Q04DX003 (ip), vehicle: acetone) 102 % of control.

Turning to `O=C1c2ccccc2C(=O)N1CN1CCC(CCCC2CCN(CN3C(=O)c4ccccc4C3=O)CC2)CC1`, the T/C under setting [1] is 92 % of control.

On to `CC(=[N-])CC(C)=O.CC(=[N-])CC(C)=O.[Cu+2]`, for which the T/C was 88 % of control (dose: 6.25 mg/kg/injection, schedule: Q04DX003 (ip), vehicle: saline with Tween-80) and 89 % of control (dose: 12.5 mg/kg/injection, schedule: Q04DX003 (ip), vehicle: saline with Tween-80).

As for `O=C(NC1CCC(NC(=O)N2CC2)CC1)N1CC1` (configuration not stated), the T/C is 116 % of control (dose: 0.12 mg/kg/injection, schedule: Q01DX009 (ip), vehicle: carboxymethylcellulose (CMC)); 120 % of control (dose: 0.29 mg/kg/injection, schedule: Q01DX009 (ip), vehicle: carboxymethylcellulose (CMC)); 164 % of control (dose: 0.8 mg/kg/injection, schedule: Q01DX009 (ip), vehicle: carboxymethylcellulose (CMC)); 118 % of control (dose: 1.0 mg/kg/injection, schedule: Q01DX009 (ip), vehicle: carboxymethylcellulose (CMC)); 164 % of control (dose: 1.2 mg/kg/injection, schedule: Q01DX009 (ip), vehicle: carboxymethylcellulose (CMC)); 114 % of control and 115 % of control (dose: 1.3 mg/kg/injection, schedule: Q01DX001 (ip), vehicle: carboxymethylcellulose (CMC)). Also, the T/C runs as follows: (dose: 1.3 mg/kg/injection, schedule: Q01DX009 (ip), vehicle: carboxymethylcellulose (CMC)) 94 % of control; (dose: 1.8 mg/kg/injection, schedule: Q01DX009 (ip), vehicle: carboxymethylcellulose (CMC)) 170 % of control; (dose: 2.0 mg/kg/injection, schedule: Q01DX001 (ip), vehicle: carboxymethylcellulose (CMC)) 112 % of control and 123 % of control; (dose: 2.0 mg/kg/injection, schedule: Q01DX009 (ip), vehicle: carboxymethylcellulose (CMC)) 94 % of control; (dose: 2.5 mg/kg/injection, schedule: Q01DX009 (ip), vehicle: carboxymethylcellulose (CMC)) 120 % of control; (dose: 3.0 mg/kg/injection, schedule: Q01DX001 (ip), vehicle: carboxymethylcellulose (CMC)) 119 % of control. The T/C runs as follows: (dose: 3.37 mg/kg/injection, schedule: Q01DX009 (ip), vehicle: carboxymethylcellulose (CMC)) 97 % of control; (dose: 4.5 mg/kg/injection, schedule: Q01DX001 (ip), vehicle: carboxymethylcellulose (CMC)) 151 % of control.

Take `CC(=O)OC1OC(CF)C(OC(C)=O)C1OC(C)=O` (configuration not stated): the T/C under setting [2] is 92 % of control.

Consider `CC(=O)Oc1cccc2c1C(=O)c1ccccc1C2=O`, for which the T/C by setting is: (dose: 100.0 mg/kg/injection, schedule: Q01DX009 (ip), vehicle: saline) 103 % of control; (dose: 100.0 mg/kg/injection, schedule: Q04DX003 (ip), vehicle: saline) 103 % of control; (dose: 200.0 mg/kg/injection, schedule: Q01DX009 (ip), vehicle: saline) 103 % of control; (dose: 200.0 mg/kg/injection, schedule: Q04DX003 (ip), vehicle: saline) 97 % of control; (dose: 400.0 mg/kg/injection, schedule: Q01DX009 (ip), vehicle: saline) 104 % of control; (dose: 400.0 mg/kg/injection, schedule: Q04DX003 (ip), vehicle: saline) 103 % of control.

As for `CCNS(=O)(=O)c1ccc(Cl)c([N+](=O)[O-])c1`, the T/C is 101 % of control (dose: 100.0 mg/kg/injection, schedule: Q01DX001 (ip), vehicle: Klucel (hydroxypropylcellulose) (HPC)); 102 % of control (dose: 200.0 mg/kg/injection, schedule: Q01DX001 (ip), vehicle: Klucel (hydroxypropylcellulose) (HPC)); 107 % of control (dose: 400.0 mg/kg/injection, schedule: Q01DX001 (ip), vehicle: Klucel (hydroxypropylcellulose) (HPC)).

With `NC(=O)c1[nH]c(CCCc2ccccc2)nc1N`, the T/C is, setting by setting: (dose: 50.0 mg/kg/injection, schedule: Q01DX009 (ip), vehicle: saline with Tween-80) 102 % of control; (dose: 50.0 mg/kg/injection, schedule: Q04DX003 (ip), vehicle: saline with Tween-80) 103 % of control; under setting [3], 110 % of control; under setting [2], 90 % of control; under setting [1], 109 % of control; under setting [4], 100 % of control. Moreover, the T/C was 102 % of control (dose: 200.0 mg/kg/injection, schedule: Q01DX009 (ip), vehicle: saline with Tween-80) and 100 % of control (dose: 200.0 mg/kg/injection, schedule: Q04DX003 (ip), vehicle: saline with Tween-80).

Take `CSc1ccc2c(c1)N(CCCN(C)C)c1ccccc1S2`: the T/C is, setting by setting: (dose: 0.78 mg/kg/injection, schedule: Q04DX003 (ip), vehicle: saline) 98 % of control and 99 % of control; (dose: 1.56 mg/kg/injection, schedule: Q04DX003 (ip), vehicle: saline) 103 % of control and 107 % of control; (dose: 3.12 mg/kg/injection, schedule: Q01DX009 (ip), vehicle: saline) 103 % of control; (dose: 3.12 mg/kg/injection, schedule: Q04DX003 (ip), vehicle: saline) 98 % of control and 102 % of control; (dose: 6.25 mg/kg/injection, schedule: Q01DX009 (ip), vehicle: saline) 120 % of control; (dose: 6.25 mg/kg/injection, schedule: Q04DX003 (ip), vehicle: saline) 101 % of control and 107 % of control. The T/C was 122 % of control (dose: 12.5 mg/kg/injection, schedule: Q01DX009 (ip), vehicle: saline); 104 % of control (dose: 12.5 mg/kg/injection, schedule: Q04DX003 (ip), vehicle: saline); 109 % of control (dose: 25.0 mg/kg/injection, schedule: Q04DX003 (ip), vehicle: saline).

Turning to `CC1c2c(c(-c3ccccc3)c3ccccc3c2-c2ccccc2)S1(=O)=O` (configuration not stated), the T/C runs as follows: (dose: 25.0 mg/kg/injection, schedule: Q04DX002 (ip), vehicle: Klucel (hydroxypropylcellulose) (HPC)) 99 % of control; (dose: 50.0 mg/kg/injection, schedule: Q04DX002 (ip), vehicle: Klucel (hydroxypropylcellulose) (HPC)) 96 % of control; (dose: 100.0 mg/kg/injection, schedule: Q04DX002 (ip), vehicle: Klucel (hydroxypropylcellulose) (HPC)) 94 % of control and 99 % of control and 111 % of control; (dose: 200.0 mg/kg/injection, schedule: Q04DX002 (ip), vehicle: Klucel (hydroxypropylcellulose) (HPC)) 94 % of control and 99 % of control and 114 % of control; (dose: 400.0 mg/kg/injection, schedule: Q04DX002 (ip), vehicle: Klucel (hydroxypropylcellulose) (HPC)) 99 % of control and 111 % of control.

Turning to `CCOC(=O)c1ccc(Nc2nc3ccccc3o2)cc1`, the T/C reads like this: (dose: 100.0 mg/kg/injection, schedule: Q01DX001 (ip), vehicle: carboxymethylcellulose (CMC)) 91 % of control; (dose: 200.0 mg/kg/injection, schedule: Q01DX001 (ip), vehicle: carboxymethylcellulose (CMC)) 94 % of control; (dose: 400.0 mg/kg/injection, schedule: Q01DX001 (ip), vehicle: carboxymethylcellulose (CMC)) 93 % of control.

As for `O=C1OC(c2ccccc2)=N/C1=C/c1ccc(OCc2ccccc2)c(OCc2ccccc2)c1`, the T/C runs as follows: under setting [3], 91 % of control; under setting [4], 95 % of control; (dose: 400.0 mg/kg/injection, schedule: Q01DX001 (ip), vehicle: saline with Tween-80) 86 % of control.

On to `CCOCCOCCOC(C)Oc1ccc(Cl)cc1` (configuration not stated), for which the T/C was 96 % of control (dose: 100.0 mg/kg/injection, schedule: Q04DX002 (ip), vehicle: saline); 90 % of control (dose: 200.0 mg/kg/injection, schedule: Q04DX002 (ip), vehicle: saline); 104 % of control (dose: 400.0 mg/kg/injection, schedule: Q04DX002 (ip), vehicle: saline).

For the origin of these results see PubChem BioAssay AID248 (DTP/NCI, 2004).
